# Test results as given in paper PMC8068361, “Design and Synthesis of a Novel PLK1 Inhibitor Scaffold Using a Hybridized 3D-QSAR Model” (International Journal of Molecular Sciences, 2021).
# Where two headings read alike, the source gives them in different places.
# Tests used:
# [1] = target: T1, PLK1 (Homo sapiens, UniProt P53350); set-up: method as in ref 17 (a number printed in a supplementary file, which may have a reference list of its own: not looked up in the article's list); settings: Table S2, Plk1, cited from earlier work
# T1 construct: purchased Reaction Biology Corp
# T1 sequence (P53350 whole entry): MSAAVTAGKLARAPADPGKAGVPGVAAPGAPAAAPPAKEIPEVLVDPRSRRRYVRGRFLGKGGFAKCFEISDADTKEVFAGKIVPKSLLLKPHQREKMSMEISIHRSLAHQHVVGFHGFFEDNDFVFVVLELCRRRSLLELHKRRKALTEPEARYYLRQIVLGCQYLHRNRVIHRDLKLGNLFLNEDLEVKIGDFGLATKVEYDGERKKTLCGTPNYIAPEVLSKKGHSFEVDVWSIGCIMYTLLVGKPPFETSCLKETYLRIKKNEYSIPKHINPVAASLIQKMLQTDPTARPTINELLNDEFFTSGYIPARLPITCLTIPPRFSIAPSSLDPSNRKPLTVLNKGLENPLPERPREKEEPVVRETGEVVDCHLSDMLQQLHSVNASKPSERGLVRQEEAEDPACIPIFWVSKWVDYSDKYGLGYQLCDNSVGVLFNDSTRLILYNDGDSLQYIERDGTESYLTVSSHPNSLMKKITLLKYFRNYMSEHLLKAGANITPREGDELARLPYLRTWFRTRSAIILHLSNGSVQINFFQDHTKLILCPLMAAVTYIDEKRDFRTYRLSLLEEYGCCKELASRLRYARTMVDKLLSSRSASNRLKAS
# [2] = target: T2, PLK1(h) (Homo sapiens, UniProt P53350); assay: PLK1 kinase IC50, Reaction Biology IC50 Profiler Express, 33P-ATP radiometric; format: biochemical; settings: enzymatic; ATP 10 μM, casein substrate
# T2 construct: purchased Reaction Biology Corp
# T2 sequence (P53350 whole entry): as above
# [3] = target: T1, PLK1; assay: Kinase panel screen (Kinase HotSpot), single dose 10 µM: PLK1; format: biochemical; settings: duplicate, read-out: inhibitory activity against PLK1
# Procedure: (§1) Assay protocol: In a final reaction volume of 25 μL, substrate[Casein], 1 μM, ATP 10 μM, PLK1(h) (5–10 mU) is incubated with 25 mM Tris pH 7.5, 0.02 mM EGTA, 0.66 mg/mL myelin basic protein, 10 mM Mg acetate, and [^33P-ATP] (specific activity approx. 500 cpm/pmol, concentration as required). The reaction is initiated by addition of the Mg-ATP mix. After incubation for 40 min at room temperature, the reaction is stopped by addition of 5 μL of a 3% phosphoric acid solution. […] The 30 selected protein kinases were ABL1, AKT1, ALK, Aurora A, AXL, AXL (R499C), BRAF (V599E), BTK, c-MER, c-MET, c-Src, CAMKK1, CDK1/cyclin A, EGFR, ERK1, FGFR3, FYN, IGF1R, JAK3, KDR/VEGFR2, LCK, LYN, MEK1, PKA, PLK1, PLK2, PLK3, PLK4/SAK, SYK, and TYRO3/SKY4.
# [4] = target: T3, PLK2 (Homo sapiens, UniProt Q9NYY3); assay: Kinase panel screen (Kinase HotSpot), single dose 10 µM: PLK2; format: biochemical
# T3 construct: purchased Reaction Biology Corp
# T3 sequence (Q9NYY3 whole entry): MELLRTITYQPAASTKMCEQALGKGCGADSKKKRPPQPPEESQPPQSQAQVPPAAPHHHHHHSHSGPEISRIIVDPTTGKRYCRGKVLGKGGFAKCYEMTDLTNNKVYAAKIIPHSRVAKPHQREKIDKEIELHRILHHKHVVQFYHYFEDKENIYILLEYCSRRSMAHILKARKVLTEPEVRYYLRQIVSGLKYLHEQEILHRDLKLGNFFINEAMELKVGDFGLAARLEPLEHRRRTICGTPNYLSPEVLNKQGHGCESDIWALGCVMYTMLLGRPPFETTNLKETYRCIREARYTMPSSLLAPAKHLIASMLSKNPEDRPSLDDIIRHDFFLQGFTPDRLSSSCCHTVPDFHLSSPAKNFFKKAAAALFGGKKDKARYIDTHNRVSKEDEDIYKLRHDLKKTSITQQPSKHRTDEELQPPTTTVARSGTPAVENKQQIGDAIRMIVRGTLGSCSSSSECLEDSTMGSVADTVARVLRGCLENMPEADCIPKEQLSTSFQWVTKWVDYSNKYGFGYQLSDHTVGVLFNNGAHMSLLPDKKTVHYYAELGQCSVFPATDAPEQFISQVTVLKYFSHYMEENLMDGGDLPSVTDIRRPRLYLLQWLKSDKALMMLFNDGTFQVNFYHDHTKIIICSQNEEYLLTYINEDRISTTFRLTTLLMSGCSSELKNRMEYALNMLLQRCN
# Procedure: as §1
# [5] = target: T4, PLK3 (Homo sapiens, UniProt Q9H4B4); assay: Kinase panel screen (Kinase HotSpot), single dose 10 µM: PLK3; format: biochemical
# T4 construct: purchased Reaction Biology Corp
# T4 sequence (Q9H4B4 whole entry): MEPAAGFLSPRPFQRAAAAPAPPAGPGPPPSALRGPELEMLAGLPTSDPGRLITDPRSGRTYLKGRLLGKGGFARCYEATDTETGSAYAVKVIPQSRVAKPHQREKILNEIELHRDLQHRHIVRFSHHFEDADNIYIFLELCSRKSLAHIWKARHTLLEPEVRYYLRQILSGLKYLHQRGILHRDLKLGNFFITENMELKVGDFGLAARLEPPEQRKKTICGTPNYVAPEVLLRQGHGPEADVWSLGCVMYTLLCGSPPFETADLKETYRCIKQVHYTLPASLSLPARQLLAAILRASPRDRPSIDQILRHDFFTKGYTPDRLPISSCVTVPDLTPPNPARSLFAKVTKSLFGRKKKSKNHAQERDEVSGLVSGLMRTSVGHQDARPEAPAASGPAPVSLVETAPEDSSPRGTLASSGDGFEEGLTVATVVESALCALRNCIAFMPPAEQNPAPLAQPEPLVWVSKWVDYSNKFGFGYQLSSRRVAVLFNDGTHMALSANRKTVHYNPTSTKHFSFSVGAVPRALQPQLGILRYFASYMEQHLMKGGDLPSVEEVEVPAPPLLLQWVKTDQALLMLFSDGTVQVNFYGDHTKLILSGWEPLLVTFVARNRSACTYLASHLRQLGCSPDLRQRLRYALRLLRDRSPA
# Procedure: as §1
# [6] = tested on: other protein kinases; assay: Kinase panel screen (Kinase HotSpot), single dose 10 µM: other kinases of the 30-kinase panel; format: biochemical
# Procedure: as §1
# [7] = target: T1, PLK1; set-up: method as in ref 18 (a number printed in a supplementary file, which may have a reference list of its own: not looked up in the article's list); settings: Table S1, Plk1, cited from earlier work; for Activity pIC50: pIC50 = −log IC50
# [8] = target: T1, PLK1; settings: in words; cited from earlier work
structure (smiles),measurement,setting,value
O=Cc1n[nH]c2c1CCc1cnc(Nc3ccccc3)nc1-2 [compound 34],IC50,[1],0.248 µM
same,Activity pIC50,[1]; pIC50 = −log IC50,6.6055
"NC(=O)c1nn(-c2ccnc(Nc3ccccc3)c2)cc1OCc1ccc(CO)cc1Cl [Compound 15, 4-((2-chloro-4-(hydroxymethyl)benzyl)oxy)-1-(2-(phenylamino)pyridin-4-yl)-1H-pyrazole-3-carboxamide]",IC50,[2],0.219 µM
same,inhibition at 10 µM,[3],97%
same,activity against PLK2,[4],no significant activity
same,activity against PLK3,[5],no significant activity
same,activity against other protein kinases,[6],no significant activity
same,IC50,[7],0.028 µM
same,Activity pIC50,[7],7.5528
"COc1ccccc1Nc1cc(-n2cc(OCc3ccc(CO)cc3Cl)c(C(N)=O)n2)ccn1 [Compound 17, 4-((2-chloro-4-(hydroxymethyl)benzyl)oxy)-1-(2-((2-methoxyphenyl)amino)pyridin-4-yl)-1H-pyrazole-3-carboxamide]",IC50,[2],0.312 µM
same,IC50,[7],0.025 µM
same,Activity pIC50,[7],7.6021
NC(=O)c1nn(-c2ccnc(NC3CCOCC3)c2)cc1OCc1ccccc1 [Compound 8a],IC50,[2],> 10 µM
COc1ccccc1Nc1cc(-n2cc(OCc3ccccc3)c(C(N)=O)n2)ccn1 [Compound 14a],IC50,[2],1.02 µM
NC(=O)c1nn(-c2ccnc(Nc3ccccc3)c2)cc1OCc1ccccc1C(F)(F)F [Compound 13b],IC50,[2],0.847 µM
NC(=O)c1nn(-c2ccnc(NC3CCNCC3)c2)cc1OCc1ccccc1 [Compound 9a],IC50,[2],> 10 µM
NC(=O)c1nn(-c2ccnc(N[C@H]3CCNC3)c2)cc1OCc1ccccc1 [Compound 10a],IC50,[2],> 10 µM
CCOC(=O)c1nn(-c2ccnc(F)c2)cc1O [compound 3],IC50,[7],0.43 µM
same,Activity pIC50,[7],6.3665
CN1CCN(c2ccc(C(=O)Nc3n[nH]c4c3CN(C(=O)Cc3cccs3)C4)cc2)CC1 [PHA-680626],PLK1 IC50s,[8],low nanomolar
COc1ccccc1Nc1cc(-n2cc(OCc3ccccc3C(F)(F)F)c(C(N)=O)n2)ccn1 [Compound 14b],IC50,[2],1.31 µM
NC(=O)c1nn(-c2ccnc(Nc3ccccc3)c2)cc1OCc1ccccc1 [Compound 13a],IC50,[2],9.89 µM
